Assay results taken from US8574563B2 (Bristol-Myers Squibb Company, priority 2006, dated 2013).
pEC50: −log10 of the molar value.

Tested on: HCV 1b-377-neo replicon cells
Assay: HCV replicon assay, HCV 1b-377-neo replicon cells (1b FRET)
Assay type: cell-based, Hepatitis C virus genotype 1b
Conditions: HCV 1b-377-neo replicon cells; HCV 1b genotype
Method in brief: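 Compounds tested in HCV genotype 1b-377-neo replicon cells with a FRET read-out. Cells resistant to a reference NS5A inhibitor through a Y2065H NS5A mutation were run alongside wild-type cells.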

For COC(=O)N[C@H](C(=O)N1CCC[C@H]1c1ncc(-c2ccc(-c3ccc(-c4cnc([C@@H]5CCCN5C(=O)[C@@H](NC(=O)OC)C(C)C)[nH]4)cc3C(N)=O)cc2)[nH]1)C(C)C [Example M118, methyl ((1S)-1-(((2S)-2-(5-(2′-carbamoyl-4′-(2-((2S)-1-((2S)-2-((methoxycarbonyl)amino)-3-methylbutanoyl)-2-pyrrolidinyl)-1H-imidazol-5-yl)-4-biphenylyl)-1H-imidazol-2-yl)-1-pyrrolidinyl)carbonyl)-2-methylpropyl)carbamate], the “EC50 range against HCV 1b (Table 2, Range)” value was “>A”.

Same assay, conditions: HCV 1b-377-neo replicon cells; HCV 1b genotype; read-out: EC50 range against HCV 1b (Table 2, Range)

O=C(C(c1ccccc1)N1CC[C@H](F)C1)N1CCC[C@H]1c1ncc(-c2ccc(-c3ccc(-c4cnc([C@@H]5CCCN5C(=O)C(c5ccccc5)N5CC[C@H](F)C5)[nH]4)cc3)cc2)[nH]1 (stereo partly drawn) [Example 20, 5,5′-(4,4′-biphenyldiyl)bis(2-((2S)-1-(((3S)-3-fluoro-1-pyrrolidinyl)(phenyl)acetyl)-2-pyrrolidinyl)-1H-imidazole)] showed a pEC50 of 7.00 to 9.00.

Same assay, conditions: Hepatitis C virus, HCV 1b-377-neo replicon cells; HCV 1b genotype; read-out: EC50 range against HCV 1b (Table 2, Range)

COc1ccccc1OCC(=O)N1CCC[C@H]1c1ncc(-c2ccc(-c3ccc(-c4cnc([C@@H]5CCCN5C(=O)[C@@H](c5ccccc5)N(C)C)[nH]4)cc3)cc2)[nH]1 [Example 94-24, (1R)-2-((2S)-2-(5-(4′-(2-((2S)-1-((2-methoxyphenoxy)acetyl)-2-pyrrolidinyl)-1H-imidazol-5-yl)-4-biphenylyl)-1H-imidazol-2-yl)-1-pyrrolidinyl)-N,N-dimethyl-2-oxo-1-phenylethanamine] and CN(C)[C@@H](C(=O)N1CCC[C@H]1c1ncc(-c2ccc(-c3ccc(-c4cnc([C@@H]5CCCN5C(=O)Cc5cccc(F)c5)[nH]4)cc3)cc2)[nH]1)c1ccccc1 [Example 94-52, (1R)-2-((2S)-2-(5-(4′-(2-((2S)-1-((3-fluorophenyl)acetyl)-2-pyrrolidinyl)-1H-imidazol-5-yl)-4-biphenylyl)-1H-imidazol-2-yl)-1-pyrrolidinyl)-N,N-dimethyl-2-oxo-1-phenylethanamine] fall in the same range of pEC50: 9.00 to 12.00 for the first, 9.00 to 12.00 for the second.

Compared with CCN(CC)[C@H](C)C(=O)N1CCC[C@H]1c1ncc(-c2ccc(-c3ccc(-c4cnc([C@@H]5CCCN5C(=O)[C@H](C)NC(=O)OC)[nH]4)cc3)cc2)[nH]1 [Example M96, methyl ((1S)-2-((2S)-2-(5-(4′-(2-((2S)-1-(N,N-diethyl-D-alanyl)-2-pyrrolidinyl)-1H-imidazol-5-yl)-4-biphenylyl)-1H-imidazol-2-yl)-1-pyrrolidinyl)-1-methyl-2-oxoethyl)carbamate], CCOC(=O)N[C@@H](C)C(=O)N1CCC[C@H]1c1ncc(-c2ccc(-c3ccc(-c4cnc([C@@H]5CCCN5C(=O)[C@H](C)NC(=O)OCC)[nH]4)cc3)cc2)[nH]1 [Example M5, ethyl ((1S)-2-((2S)-2-(5-(4′-(2-((2S)-1-(N-(ethoxycarbonyl)-L-alanyl)-2-pyrrolidinyl)-1H-imidazol-5-yl)-4-biphenylyl)-1H-imidazol-2-yl)-1-pyrrolidinyl)-1-methyl-2-oxoethyl)carbamate] is lower in pEC50: 6.00 to 7.00 for the first, 5.00 to 6.00 for the second. The first is the more potent here.

CCN(CC)[C@@H](C(=O)N1CCC[C@H]1c1ncc(-c2cnc(-c3ccc(-c4[nH]c([C@@H]5CCCN5C(=O)[C@@H](c5ccccc5)N(CC)CC)nc4C(F)(F)F)cc3)nc2)[nH]1)c1ccccc1 [Example J47, (1R)-2-((2S)-2-(5-(4-(5-(2-((2S)-1-((2R)-2-(diethylamino)-2-phenylacetyl)-2-pyrrolidinyl)-1H-imidazol-5-yl)-2-pyrimidinyl)phenyl)-4-(trifluoromethyl)-1H-imidazol-2-yl)-1-pyrrolidinyl)-N,N-diethyl-2-oxo-1-phenylethanamine] and CCN(CC)[C@@H](C(=O)N1CCC[C@H]1c1ncc(-c2ccc(-c3ccc(-c4cnc([C@@H]5CCCN5C(=O)CC(Cc5ccccc5F)NC(=O)OC)[nH]4)cc3)cc2)[nH]1)c1ccccc1 (stereo in doubt) [cj-59, methyl ((1S)-3-((2S)-2-(5-(4′-(2-((2S)-1-((2R)-2-(diethylamino)-2-phenylacetyl)-2-pyrrolidinyl)-1H-imidazol-5-yl)-4-biphenylyl)-1H-imidazol-2-yl)-1-pyrrolidinyl)-1-(2-fluorobenzyl)-3-oxopropyl)carbamate] fall in the same range of pEC50: 9.00 to 12.00 for the first, 9.00 to 12.00 for the second.

First: COC(=O)N[C@@H](C)C(=O)N1CCC[C@H]1c1ncc(-c2ccc(-c3ccc(-c4cnc([C@@H]5CCCN5C(=O)[C@H](Cc5cscn5)NC(=O)OC)[nH]4)cc3)cc2)[nH]1 [cj-81, methyl ((1S)-2-((2S)-2-(5-(4′-(2-((2S)-1-(N-(methoxycarbonyl)-L-alanyl)-2-pyrrolidinyl)-1H-imidazol-5-yl)-4-biphenylyl)-1H-imidazol-2-yl)-1-pyrrolidinyl)-2-oxo-1-(1,3-thiazol-4-ylmethyl)ethyl)carbamate]
Second: COC(=O)N[C@H](C(=O)N1CCC[C@H]1c1ncc(-c2ccc(-c3ccc(-c4cnc([C@@H]5CCCN5C(=O)[C@@H](NC(=O)OC)[C@H](C)O)[nH]4)cc3)cc2)[nH]1)[C@H](C)O [Example M16, methyl ((1S,2S)-2-hydroxy-1-(((2S)-2-(5-(4′-(2-((2S)-1-((2S,3S)-3-hydroxy-2-((methoxycarbonyl)amino)butanoyl)-2-pyrrolidinyl)-1H-imidazol-5-yl)-4-biphenylyl)-1H-imidazol-2-yl)-1-pyrrolidinyl)carbonyl)propyl)carbamate]
The pEC50 of the first is higher: 9.00 to 12.00 for the first, 5.00 to 6.00 for the second. The first is the more potent here.

CO[C@@H](C(=O)N1CCC[C@H]1c1ncc(-c2ccc(-c3ccc(-c4cnc([C@@H]5CCCN5C(=O)[C@@H](c5ccccc5)N5CCCCC5)[nH]4)cc3)cc2)[nH]1)c1ccccc1 [Example 107-19, 1-((1R)-2-((2S)-2-(5-(4′-(2-((2S)-1-((2R)-2-methoxy-2-phenylacetyl)-2-pyrrolidinyl)-1H-imidazol-5-yl)-4-biphenylyl)-1H-imidazol-2-yl)-1-pyrrolidinyl)-2-oxo-1-phenylethyl) piperidine] and CC1(O)CCN([C@@H](C(=O)N2CCC[C@H]2c2ncc(-c3ccc(-c4ccc(-c5cnc([C@@H]6CCCN6C(=O)[C@@H](c6ccccc6)N6CCC(C)(O)CC6)[nH]5)cc4)cc3)[nH]2)c2ccccc2)CC1 [Example 24-2, 1,1′-(4,4′-biphenyldiylbis(1H-imidazole-5,2-diyl(2S)-2,1-pyrrolidinediyl((1R)-2-oxo-1-phenyl-2,1-ethanediyl)))bis(4-methyl-4-piperidinol)] fall in the same range of pEC50: 9.00 to 12.00 for the first, 9.00 to 12.00 for the second.

COC(=O)N[C@@H](C(=O)N1CCC[C@H]1c1nc(-c2cnc(-c3ccc(-c4cnc([C@@H]5CCCN5C(=O)[C@H](NC(=O)OC)c5ccccc5)[nH]4)c(F)c3)nc2)c[nH]1)c1ccccc1 [Example D69, methyl ((1R)-2-((2S)-2-(5-(2-(3-fluoro-4-(2-((2S)-1-((2R)-2-((methoxycarbonyl)amino)-2-phenylacetyl)-2-pyrrolidinyl)-1H-imidazol-5-yl)phenyl)-5-pyrimidinyl)-1H-imidazol-2-yl)-1-pyrrolidinyl)-2-oxo-1-phenylethyl)carbamate] and COC(=O)N[C@H](C(=O)N1CCC[C@H]1c1nc(-c2cnc(-c3ccc(-c4cnc([C@@H]5CCCN5C(=O)[C@@H](NC(=O)OC)[C@@H](C)OC)[nH]4)c(F)c3)nc2)c[nH]1)[C@@H](C)OC [Example D70, methyl ((1S,2R)-1-(((2S)-2-(5-(2-fluoro-4-(5-(2-((2S)-1-(N-(methoxycarbonyl)-O-methyl-L-threonyl)-2-pyrrolidinyl)-1H-imidazol-5-yl)-2-pyrimidinyl)phenyl)-1H-imidazol-2-yl)-1-pyrrolidinyl)carbonyl)-2-methoxypropyl) carbamate] fall in the same range of pEC50: 9.00 to 12.00 for the first, 9.00 to 12.00 for the second.

COC(=O)N[C@@H](C(=O)N1CCC[C@H]1c1ncc(-c2ccc(-c3ccc(-c4cnc([C@@H]5CCCN5C(=O)C5CCOC5)[nH]4)cc3)cc2)[nH]1)c1ccccc1 (stereo partly drawn) [Example 74, methyl ((1R)-2-oxo-1-phenyl-2-((2S)-2-(5-(4′-(2-((2S)-1-(tetrahydro-3-furanylcarbonyl)-2-pyrrolidinyl)-1H-imidazol-5-yl)-4-biphenylyl)-1H-imidazol-2-yl)-1-pyrrolidinyl)ethyl)carbamate] and COC(=O)N[C@@H](C(=O)N1C[C@@H](O)C[C@H]1c1ncc(-c2ccc(-c3ccc(-c4cnc([C@@H]5C[C@H](O)CN5C(=O)[C@H](NC(=O)OC)c5ccccc5)[nH]4)cc3)cc2)[nH]1)c1ccccc1 [Example 24-17, dimethyl (4,4′-biphenyldiylbis(1H-imidazole-5,2-diyl((2S,4S)-4-hydroxy-2,1-pyrrolidinediyl)((1R)-2-oxo-1-phenyl-2,1-ethanediyl)))biscarbamate] fall in the same range of pEC50: 9.00 to 12.00 for the first, 9.00 to 12.00 for the second.

Compared with CCCCOC(=O)N[C@@H](C)C(=O)N1CCC[C@H]1c1nc(-c2ccc(-c3ccc(-c4cnc([C@@H]5CCCN5C(=O)[C@H](C)NC(=O)OCCCC)[nH]4)cc3)cc2)c[nH]1 [Example F21, butyl ((1S)-2-((2S)-2-(4-(4′-(2-((2S)-1-(N-(butoxycarbonyl)-L-alanyl)-2-pyrrolidinyl)-1H-imidazol-5-yl)-4-biphenylyl)-1H-imidazol-2-yl)-1-pyrrolidinyl)-1-methyl-2-oxoethyl)carbamate], CC(=O)N[C@H](C(=O)N1CCC[C@H]1c1nc(-c2ccc(-c3ccc(-c4c[nH]c([C@@H]5CCCN5C(=O)[C@@H](NC(C)=O)C(C)C)n4)cc3)cc2)c[nH]1)C(C)C [Example F60, N-((1S)-1-(((2S)-2-(4-(4′-(2-((2S)-1-((2S)-2-acetamido-3-methylbutanoyl)-2-pyrrolidinyl)-1H-imidazol-4-yl)-4-biphenylyl)-1H-imidazol-2-yl)-1-pyrrolidinyl)carbonyl)-2-methylpropyl)acetamide] is higher in pEC50: 6.00 to 7.00 for the first, 9.00 to 12.00 for the second. The second is the more potent here.

C[C@@H](c1ncc(-c2ccc(-c3ccc(-c4cnc([C@H](C)N(C)C(=O)[C@@H](c5ccccc5)N(C)C)[nH]4)cc3)cc2)[nH]1)N(C)C(=O)[C@@H](c1ccccc1)N(C)C [Example 24-18-2, (2R,2′R)-N,N′-(4,4′-biphenyldiylbis(1H-imidazole-5,2-diyl(1S)-1,1-ethanediyl))bis(2-(dimethylamino)N-methyl-2-phenylacetamide)] was tested, and the pEC50 was 9.00 to 12.00.
